# Experiment: Concentration required against dynamin-1 GTPase activity of sheep brain.
row,SMILES,IC50 [µM]
1,CCCCCCCCCCCCCCN,8.74

# Experiment: as above
# Remark: another data set of the same source
row,SMILES,IC50 [µM]
1,CCCCCCCCCCCCCCN,14.9
2,"NCCCCCCCCCCCCN [1,12-diaminododecane]",39.6
3,"CCCCCCCCCCCCCCOC(CN)CN [2-Tetradecyloxy-propane-1,3-diammonium chloride]",7.37
4,CCCCCCCCCCCCCC[N+](C)(C)CCO [(2-Hydroxy-ethyl)-dimethyl-tetradecyl-ammonium; bromide],9.36
5,"CCCC/C=C\C/C=C\C/C=C\C/C=C\CCCC(=O)NCCF [(5Z,8Z,11Z,14Z)-Nonadeca-5,8,11,14-tetraenoic acid (2-fluoro-ethyl)-amide]",> 300
6,CCCCCCCCCCCCCC[N+](C)(C)CCCC [Butyl-dimethyl-tetradecyl-ammonium; bromide],8.02
7,CCCCCCCCCCCCCC[N+](C)(C)CCC [Dimethyl-propyl-tetradecyl-ammonium; bromide],8.85
8,CCCCCCCCCCCC[N+](C)(C)CC [Dodecyl-ethyl-dimethyl-ammonium; bromide],10.1
9,CCCCCCCCCCCCCCN [Tetradecylamine],20.2
10,CCCCCCCCCCCCCCCC[P+](CCCC)(CCCC)CCCC [Tributyl-hexadecyl-phosphonium; bromide],10.2
11,CCCCCCCCCCCCC(=O)OCCN(C)C [Tridecanoic acid 2-dimethylamino-ethyl ester],23
12,CCCCCCCCCCCCC(=O)NCCN(C)C [Tridecanoic acid (2-dimethylamino-ethyl)-amide],8.85
13,CCCCCCCCCCCCCCCC[N+](CC)(CC)CC [Triethyl-hexadecyl-ammonium; bromide],9.62
14,CCCCCCCCCCCCCC[N+](CC)(CC)CC [Triethyl-tetradecyl-ammonium; bromide],8.45

# Experiment: Concentration required against dynamin-1 GTPase activity of sheep brain; increased dynamin I GTPase activity at 30 uM.
row,SMILES,IC50 [µM]
1,"CCCC/C=C\C[C@@H](O)/C=C/C=C/C=C\[C@@H](O)CCCC(=O)O [(6Z,8E,10E,14Z)-(5S,12R)-5,12-Dihydroxy-nonadeca-6,8,10,14-tetraenoic acid]",> 300
